Results reported in patent US20170190671A1, “BIS(ARYL)CATECHOL DERIVATIVES AS HERBICIDES” (E I DU PONT DE NEMOURS AND COMPANY, priority 2014, published 2017).

Tests used:
Experiment in all cases: Test C preemergence
Assay type in all cases: in vivo
[1] = tested on: winter wheat (Triticum aestivum); conditions: Triticum aestivum, pre-emergence, 336 h, scale 0 to 100, read-out: Plant response rating, Wheat
Procedure, shortened: (§1)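 Greenhouse test; preemergence to seeds in loam/sand soil, or postemergence spray to 2-18 cm, 1- to 4-leaf plants in peat/vermiculite medium; compound in non-phytotoxic solvent plus surfactant. Visual rating vs controls at 13-15 d, 0 = no effect, 100 = complete control.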

[2] = tested on: Italian ryegrass (Lolium multiflorum); conditions: Lolium multiflorum, pre-emergence, 336 h, scale 0 to 100, read-out: Plant response rating, Ryegrass, Italian
Procedure, shortened: as §1

[3] = tested on: velvetleaf (Abutilon theophrasti); conditions: Abutilon theophrasti, pre-emergence, scale 0 to 100, read-out: Plant response rating, Velvetleaf
Procedure, shortened: as §1

[4] = tested on: morningglory (Ipomoea coccinea); conditions: Ipomoea, pre-emergence, 336 h, scale 0 to 100, read-out: Plant response rating, Morningglory
Procedure, shortened: as §1

soybean (Glycine max) = conditions: Glycine max, pre-emergence, scale 0 to 100, read-out: Plant response rating, Soybean
Procedure, shortened: as §1

[5] = tested on: large (Lg) crabgrass (Digitaria sanguinalis); conditions: Digitaria sanguinalis, pre-emergence, 336 h, scale 0 to 100, read-out: Plant response rating, Crabgrass, Large
Procedure, shortened: as §1

[6] = tested on: lambsquarters (Chenopodium album); conditions: Chenopodium album, pre-emergence, 336 h, scale 0 to 100, read-out: Plant response rating, Lambsquarters
Procedure, shortened: as §1

[7] = tested on: johnsongrass (Sorghum halepense); conditions: Sorghum halepense, pre-emergence, 336 h, scale 0 to 100, read-out: Plant response rating, Johnsongrass
Procedure, shortened: as §1

corn (Zea mays) = conditions: Zea mays, pre-emergence, 336 h, scale 0 to 100
Procedure, shortened: as §1

[8] = tested on: waterhemp (common waterhemp, Amaranthus rudis); conditions: Amaranthus tuberculatus, pre-emergence, scale 0 to 100, read-out: Plant response rating, Waterhemp
Procedure, shortened: as §1

[9] = tested on: pigweed (Amaranthus retroflexus); conditions: Amaranthus retroflexus, pre-emergence, 336 h, scale 0 to 100, read-out: Plant response rating, Pigweed
Procedure, shortened: as §1

[10] = tested on: barnyardgrass (Echinochloa crus-galli); conditions: Echinochloa crus-galli, pre-emergence, read-out: Plant response rating, Barnyardgrass
Procedure, shortened: as §1

[11] = tested on: galium (catchweed bedstraw, Galium aparine); conditions: Galium, pre-emergence, 336 h, scale 0 to 100, read-out: Plant response rating, Galium
Procedure, shortened: as §1

[12] = tested on: ragweed (common ragweed, Ambrosia elatior); conditions: Ambrosia artemisiifolia, pre-emergence, 336 h, scale 0 to 100, read-out: Plant response rating, Ragweed
Procedure, shortened: as §1

[13] = tested on: giant foxtail (Setaria faberii); conditions: Setaria faberi, pre-emergence, 336 h, scale 0 to 100, read-out: Plant response rating, Foxtail, Giant
Procedure, shortened: as §1

Fc1ccc(F)c(Oc2ncc(Cl)cn2)c1Oc1ncc(Cl)cn1 [Compound 34, 2,2′-[(3,6-difluoro-1,2-phenylene)bis(oxy)]bis[5-chloropyrimidine]]
plant injury at 31 g/ha ([1]; 31 g ai/ha, preemergence): 0% | plant injury at 62 g/ha ([1]; 62 g ai/ha, preemergence): 15% | plant injury at 125 g/ha ([1]; 125 g ai/ha, preemergence): 10% | plant injury at 16 g/ha ([1]; Preemergence, 16 g ai/ha): 0% | pest or weed control at 31 g/ha ([2]; 31 g ai/ha, preemergence): 5% | pest or weed control at 62 g/ha ([2]; 62 g ai/ha, preemergence): 10% | pest or weed control at 125 g/ha ([2]; 125 g ai/ha, preemergence): 35% | pest or weed control at 16 g/ha ([2]; Preemergence, 16 g ai/ha): 0% | pest or weed control at 31 g/ha ([3]; 31 g ai/ha, preemergence): 45% | pest or weed control at 62 g/ha ([3]; 62 g ai/ha, preemergence): 70% | pest or weed control at 125 g/ha ([3]; 125 g ai/ha, preemergence): 80% | pest or weed control at 16 g/ha ([3]; Preemergence, 16 g ai/ha): 35% | pest or weed control at 31 g/ha ([4]; 31 g ai/ha, preemergence): 20% | pest or weed control at 62 g/ha ([4]; 62 g ai/ha, preemergence): 60% | pest or weed control at 125 g/ha ([4]; 125 g ai/ha, preemergence): 90% | pest or weed control at 16 g/ha ([4]; Preemergence, 16 g ai/ha): 0% | plant injury at 31 g/ha (soybean (Glycine max); 31 g ai/ha, preemergence): 20% | plant injury at 62 g/ha (soybean (Glycine max); 62 g ai/ha, preemergence): 45% | plant injury at 125 g/ha (soybean (Glycine max); 125 g ai/ha, preemergence): 55% | plant injury at 16 g/ha (soybean (Glycine max); Preemergence, 16 g ai/ha): 5% | pest or weed control at 31 g/ha ([5]; 31 g ai/ha, preemergence): 85% | pest or weed control at 62 g/ha ([5]; 62 g ai/ha, preemergence): 98% | pest or weed control at 125 g/ha ([5]; 125 g ai/ha, preemergence): 100% | pest or weed control at 16 g/ha ([5]; Preemergence, 16 g ai/ha): 80% | pest or weed control at 31 g/ha ([6]; 31 g ai/ha, preemergence): 90% | pest or weed control at 62 g/ha ([6]; 62 g ai/ha, preemergence): 100% | pest or weed control at 125 g/ha ([6]; 125 g ai/ha, preemergence): 98% | pest or weed control at 16 g/ha ([6]; Preemergence, 16 g ai/ha): 80% | pest or weed control at 31 g/ha ([7]; 31 g ai/ha, preemergence): 55% | pest or weed control at 62 g/ha ([7]; 62 g ai/ha, preemergence): 75% | pest or weed control at 125 g/ha ([7]; 125 g ai/ha, preemergence): 98% | pest or weed control at 16 g/ha ([7]; Preemergence, 16 g ai/ha): 50% | Corn plant response rating (crop injury, 0 = no effect, 100 = complete kill) at 31 g/ha (corn (Zea mays); 31 g ai/ha, preemergence): 5% | Corn plant response rating (crop injury, 0 = no effect, 100 = complete kill) at 62 g/ha (corn (Zea mays); 62 g ai/ha, preemergence): 20% | Corn plant response rating (crop injury, 0 = no effect, 100 = complete kill) at 125 g/ha (corn (Zea mays); 125 g ai/ha, preemergence): 40% | Corn plant response rating (crop injury, 0 = no effect, 100 = complete kill) at 16 g/ha (corn (Zea mays); Preemergence, 16 g ai/ha): 0% | pest or weed control at 31 g/ha ([8]; 31 g ai/ha, preemergence): 100% | pest or weed control at 62 g/ha ([8]; 62 g ai/ha, preemergence): 100% | pest or weed control at 125 g/ha ([8]; 125 g ai/ha, preemergence): 100% | pest or weed control at 16 g/ha ([8]; Preemergence, 16 g ai/ha): 100% | pest or weed control at 31 g/ha ([9]; 31 g ai/ha, preemergence): 100% | pest or weed control at 62 g/ha ([9]; 62 g ai/ha, preemergence): 100% | pest or weed control at 125 g/ha ([9]; 125 g ai/ha, preemergence): 100% | pest or weed control at 16 g/ha ([9]; Preemergence, 16 g ai/ha): 100% | pest or weed control at 31 g/ha ([10]; 31 g ai/ha, preemergence, scale 0 to 100): 55% | pest or weed control at 62 g/ha ([10]; 62 g ai/ha, preemergence, scale 0 to 100): 85% | pest or weed control at 125 g/ha ([10]; 125 g ai/ha, preemergence, scale 0 to 100): 98% | pest or weed control at 16 g/ha ([10]; Preemergence, 16 g ai/ha, scale 0 to 100 (0 no effect, 100 complete control)): 20% | pest or weed control at 31 g/ha ([11]; 31 g ai/ha, preemergence): 95% | pest or weed control at 62 g/ha ([11]; 62 g ai/ha, preemergence): 95% | pest or weed control at 125 g/ha ([11]; 125 g ai/ha, preemergence): 98% | pest or weed control at 16 g/ha ([11]; Preemergence, 16 g ai/ha): 90% | pest or weed control at 31 g/ha ([12]; 31 g ai/ha, preemergence): 0% | pest or weed control at 62 g/ha ([12]; 62 g ai/ha, preemergence): 25% | pest or weed control at 125 g/ha ([12]; 125 g ai/ha, preemergence): 40% | pest or weed control at 16 g/ha ([12]; Preemergence, 16 g ai/ha): 0% | pest or weed control at 31 g/ha ([13]; 31 g ai/ha, preemergence): 98% | pest or weed control at 62 g/ha ([13]; 62 g ai/ha, preemergence): 100% | pest or weed control at 125 g/ha ([13]; 125 g ai/ha, preemergence): 100% | pest or weed control at 16 g/ha ([13]; Preemergence, 16 g ai/ha): 70%
